Test results: patent US20140314882A1, “Synergistic Combination Therapy” (President and Fellows of Harvard College, priority 2009, published 2014)

Tested on: S. cerevisiae cells (strain BY4741)
Assay: concentration matrix drug synergy test on S. cerevisiae growth (OD595 growth curves)

C/C1=C/C(=O)O[C@@H]2C[C@@H](CC[C@H](C)/C=C\CC1)O[C@@](O)([C@@H]1CSC(=O)N1)C2 [latrunculin B]
effect on yeast growth: only mildly reduced yeast growth

C=CC[C@@H]1/C=C(\C)C[C@H](C)C[C@H](OC)[C@H]2O[C@@](O)(C(=O)C(=O)N3CCCC[C@H]3C(=O)O[C@H](/C(C)=C/[C@@H]3CC[C@@H](O)[C@H](OC)C3)[C@H](C)[C@@H](O)CC1=O)[C@H](C)C[C@@H]2OC [tacrolimus]
effect on yeast growth: only mildly reduced yeast growth
